Experimental data as given in ChEMBL document CHEMBL1201862, “PubChem BioAssay data set” (2004).
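Interpolation was linear, between the two tested concentrations surrounding the appropriate level; five concentrations were tested over 48 hours in 96-well plates. GI50 is the concentration that inhibits growth by half.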 Activity calls are given as the source filed them. Cut-off read from the data, not from the text of the source: active = GI50 up to about 1.1 µM and inactive = higher.

How the values were obtained:
Test in all cases: NCI tumour cell line growth inhibition, 48 h
SN12C = test system: SN12C
HOP-92 = test system: HOP-92
COLO 205 = test system: COLO 205
Hs-578T = test system: Hs-578T
A498 = test system: A498
MCF7 = test system: MCF7
SK-OV-3 = test system: SK-OV-3
EKVX = test system: EKVX
MDA-MB-435 = test system: MDA-MB-435
CCRF-CEM = test system: CCRF-CEM
SK-MEL-2 = test system: SK-MEL-2
ACHN = test system: ACHN
SW-620 = test system: SW-620
SF-295 = test system: SF-295
IGROV-1 = test system: IGROV-1
K562 = test system: K562
NCI-H226 = test system: NCI-H226
MOLT-4 = test system: MOLT-4
HCC 2998 = test system: HCC 2998
RPMI-8226 = test system: RPMI-8226

Row | Compound | GI50 (SN12C) | GI50 (HOP-92) | GI50 (COLO 205) | GI50 (Hs-578T) | GI50 (A498) | GI50 (MCF7) | GI50 (SK-OV-3) | GI50 (EKVX) | GI50 (MDA-MB-435) | GI50 (CCRF-CEM) | GI50 (SK-MEL-2) | GI50 (ACHN) | GI50 (SW-620) | GI50 (SF-295) | GI50 (IGROV-1) | GI50 (K562) | GI50 (NCI-H226) | GI50 (MOLT-4) | GI50 (HCC 2998) | GI50 (RPMI-8226)
1 | COc1cc(S(=O)(=O)Nc2nc(-c3ccc(/N=C/c4ccccc4O)cc3)cs2)ccc1Cl | 17.9 µM (inactive) | 29 µM (inactive) | 25.7 µM (inactive) | 38.2 µM (inactive) | 41.7 µM (inactive) | 27.8 µM (inactive) | 44.9 µM (inactive) | 23.4 µM (inactive) | 54.5 µM (inactive) | 26.5 µM (inactive) | 34.7 µM (inactive) | 41.7 µM (inactive) | 79.8 µM (inactive) | 36 µM (inactive) | 31.4 µM (inactive) | 30.4 µM (inactive) | 44.2 µM (inactive) | 27.5 µM (inactive) | 45.5 µM (inactive) | –
2 | CC(=O)OCC1OC(n2c3c(c(-c4ccc(Cl)cc4)c(C#N)c2=S)C(=O)CC(C)(C)C3)C(OC(C)=O)C(OC(C)=O)C1OC(C)=O (stereo not drawn) | 16 µM (inactive) | 18.5 µM (inactive) | 25 µM (inactive) | 20.7 µM (inactive) | 30.3 µM (inactive) | 7.98 µM (inactive) | – | – | 12.7 µM (inactive) | 3.95 µM (inactive) | 23.4 µM (inactive) | 28.5 µM (inactive) | 7.06 µM (inactive) | 32.6 µM (inactive) | 40.7 µM (inactive) | 3.23 µM (inactive) | 27.5 µM (inactive) | 4.45 µM (inactive) | 4.68 µM (inactive) | 4.59 µM (inactive)
3 | Cc1cc(OC(=O)Nc2ccc(Cl)cc2)ccc1C(=S)Nc1ccccc1 | > 100 µM (inactive) | > 100 µM (inactive) | 40.6 µM (inactive) | 91 µM (inactive) | 96.6 µM (inactive) | 34.9 µM (inactive) | > 100 µM (inactive) | 60.3 µM (inactive) | 54 µM (inactive) | 20.7 µM (inactive) | 66.2 µM (inactive) | 18.7 µM (inactive) | > 100 µM (inactive) | 38.5 µM (inactive) | > 100 µM (inactive) | 6.49 µM (inactive) | – | 29.6 µM (inactive) | 26.3 µM (inactive) | > 100 µM (inactive)
4 | OCC(CCc1ccccc1I)C1=CCC2(CC1)OCCO2 (stereo not drawn) | – | 12.4 µM (inactive) | 20.1 µM (inactive) | 20.7 µM (inactive) | 24.1 µM (inactive) | 23.3 µM (inactive) | 39 µM (inactive) | 21.4 µM (inactive) | 15.7 µM (inactive) | 13.5 µM (inactive) | 23.9 µM (inactive) | 28.7 µM (inactive) | 23.4 µM (inactive) | 16.4 µM (inactive) | 16.7 µM (inactive) | > 100 µM (inactive) | 28.4 µM (inactive) | 61.2 µM (inactive) | 20.4 µM (inactive) | 53.6 µM (inactive)
5 | Cc1sc2nc(-c3cc([N+](=O)[O-])c(Cl)cc3Cl)c(/C=N/NC(=N)N)n2c1C | 5.65 µM (inactive) | 7.13 µM (inactive) | – | 16.7 µM (inactive) | 19.5 µM (inactive) | 2.86 µM (inactive) | – | 19.8 µM (inactive) | 3.72 µM (inactive) | 4.31 µM (inactive) | 1.97 µM (inactive) | 5.22 µM (inactive) | 13.6 µM (inactive) | 13 µM (inactive) | 2.34 µM (inactive) | 3.06 µM (inactive) | 26.8 µM (inactive) | 1.62 µM (inactive) | 2.34 µM (inactive) | 4.5 µM (inactive)
6 | CC(C)(C)C1CC[C@H](O)[C@H]([C@H](O)CC2CC(=O)N(c3ccccc3)C(=O)C2)C1 (stereo partly drawn) | > 100 µM (inactive) | 36.1 µM (inactive) | – | > 100 µM (inactive) | > 100 µM (inactive) | > 100 µM (inactive) | – | > 100 µM (inactive) | > 100 µM (inactive) | > 100 µM (inactive) | – | > 100 µM (inactive) | > 100 µM (inactive) | 63.7 µM (inactive) | > 100 µM (inactive) | > 100 µM (inactive) | > 100 µM (inactive) | 99.3 µM (inactive) | > 100 µM (inactive) | –
7 | CC1OC(OC2C(O)COC(OC3C(C)OC(OC4C(OC(=O)[C@]56CCC(C)(C)C[C@@H]5C5=CCC7[C@@]8(C)C[C@H](O)[C@H](OC9OC(CO)C(O)C(OC%10OC(CO)C(O)C(O)C%10O)C9O)[C@@](C)(CO)[C@@H]8CC[C@@]7(C)[C@]5(C)CC6)OCC(O)C4O)C(O)C3OC3OCC(O)(CO)C3O)C2O)C(O)C(O)C1O (stereo partly drawn) | 3.66 µM (inactive) | 10.2 µM (inactive) | 6.31 µM (inactive) | 11.3 µM (inactive) | 9.62 µM (inactive) | 12.4 µM (inactive) | 9.29 µM (inactive) | 5.83 µM (inactive) | 11.5 µM (inactive) | 6.14 µM (inactive) | – | 9.68 µM (inactive) | 6.43 µM (inactive) | 9.66 µM (inactive) | – | 22.7 µM (inactive) | 12.3 µM (inactive) | 9.77 µM (inactive) | 8.09 µM (inactive) | 13.6 µM (inactive)
8 | CC(C)C[C@H](NC(=O)CCc1cccc2ccccc12)B(O)O | 2.19 µM (inactive) | 2.17 µM (inactive) | 4.59 µM (inactive) | 0.857 µM (active) | 0.497 µM (active) | 0.56 µM (active) | 8.73 µM (inactive) | 5.27 µM (inactive) | 0.31 µM (active) | – | 1.03 µM (active) | 0.498 µM (active) | 0.676 µM (active) | 1.74 µM (inactive) | 2.13 µM (inactive) | 2.34 µM (inactive) | 0.161 µM (active) | 0.375 µM (active) | 0.64 µM (active) | 0.331 µM (active)
9 | CC(=O)Nc1ccc(C2SCc3nc4ccccc4n32)cc1 (stereo not drawn) | > 100 µM (inactive) | 57.7 µM (inactive) | > 100 µM (inactive) | 41.9 µM (inactive) | 4.91 µM (inactive) | 57 µM (inactive) | > 100 µM (inactive) | 87.9 µM (inactive) | > 100 µM (inactive) | > 100 µM (inactive) | > 100 µM (inactive) | 96.4 µM (inactive) | > 100 µM (inactive) | 87.9 µM (inactive) | > 91 µM (inactive) | 66.8 µM (inactive) | – | > 100 µM (inactive) | > 100 µM (inactive) | 47.6 µM (inactive)
10 | CNC(=O)OCc1c(COC(=O)NC)c(-c2ccc(Cl)c(Cl)c2)n2c1SCC2 | 13 µM (inactive) | 10.6 µM (inactive) | 9.82 µM (inactive) | 21 µM (inactive) | 0.836 µM (active) | 13 µM (inactive) | 6.21 µM (inactive) | 19.8 µM (inactive) | 18 µM (inactive) | 13.4 µM (inactive) | 11.7 µM (inactive) | 3.61 µM (inactive) | 10.8 µM (inactive) | 13.6 µM (inactive) | – | 11 µM (inactive) | 0.387 µM (active) | 12 µM (inactive) | 19.7 µM (inactive) | 12.2 µM (inactive)
11 | COC(=O)c1ccccc1/C=C1\Cc2c(C)c3c(c(C)c2C1=O)CCC3 | > 100 µM (inactive) | > 100 µM (inactive) | > 100 µM (inactive) | 24.5 µM (inactive) | > 100 µM (inactive) | > 100 µM (inactive) | – | > 100 µM (inactive) | > 100 µM (inactive) | > 100 µM (inactive) | 6.27 µM (inactive) | > 100 µM (inactive) | > 100 µM (inactive) | > 100 µM (inactive) | > 100 µM (inactive) | > 100 µM (inactive) | > 100 µM (inactive) | > 100 µM (inactive) | > 100 µM (inactive) | > 100 µM (inactive)
12 | CCOc1ccc(NC(=O)/C(=N\N)C(C(=O)OC)c2nc3ccc(Cl)cc3nc2O)cc1 (stereo not drawn) | > 100 µM (inactive) | > 100 µM (inactive) | – | > 100 µM (inactive) | > 100 µM (inactive) | > 100 µM (inactive) | > 100 µM (inactive) | 33 µM (inactive) | > 100 µM (inactive) | > 100 µM (inactive) | > 100 µM (inactive) | 45 µM (inactive) | > 100 µM (inactive) | > 100 µM (inactive) | 79.1 µM (inactive) | – | > 100 µM (inactive) | – | > 100 µM (inactive) | > 100 µM (inactive)
13 | Cc1cc(C)n(C(C)(C(=O)Cc2ccccc2)n2nc(C)cc2C)n1 | > 100 µM (inactive) | > 100 µM (inactive) | > 100 µM (inactive) | > 100 µM (inactive) | > 100 µM (inactive) | > 100 µM (inactive) | > 100 µM (inactive) | > 100 µM (inactive) | > 100 µM (inactive) | – | > 100 µM (inactive) | > 100 µM (inactive) | > 100 µM (inactive) | > 100 µM (inactive) | > 100 µM (inactive) | > 100 µM (inactive) | > 100 µM (inactive) | > 100 µM (inactive) | > 100 µM (inactive) | > 100 µM (inactive)
14 | CC[C@H]1C=CCC[C@@]2(C[C@@H]3CC[C@H]4[C@@H](C(=O)OCCCCCCCCCCCCCCCC(=O)N(CCCN)C[C@@H](O)CCN)[C@@]5(CCC[C@@H](C)O5)NC(=[N+]34)N2)O1 | 2.96 µM (inactive) | 1.87 µM (inactive) | 1.83 µM (inactive) | 1.83 µM (inactive) | 3.01 µM (inactive) | 1.62 µM (inactive) | 1.8 µM (inactive) | 1.76 µM (inactive) | 1.55 µM (inactive) | – | 1.7 µM (inactive) | 3.9 µM (inactive) | 2.12 µM (inactive) | 1.9 µM (inactive) | 1.74 µM (inactive) | 1.48 µM (inactive) | 1.6 µM (inactive) | 1.23 µM (inactive) | 1.73 µM (inactive) | 1.07 µM (active)
